# According to patent US8461328B2, “Tricyclic heterocyclic compounds, compositions and methods of use thereof” (Genentech, Inc., priority 2010, dated 2013):
# pKi: −log10 of the molar value.
# Key:
# Type in all cases: biochemical
# TYK2 = target: T1, TYK2 (Homo sapiens, UniProt P29597); test: TYK2 inhibition (Table 4)
# T1 construct: made in house; host or cells: SF9 insect cells (baculovirus)
# T1 sequence (P29597 873-1187): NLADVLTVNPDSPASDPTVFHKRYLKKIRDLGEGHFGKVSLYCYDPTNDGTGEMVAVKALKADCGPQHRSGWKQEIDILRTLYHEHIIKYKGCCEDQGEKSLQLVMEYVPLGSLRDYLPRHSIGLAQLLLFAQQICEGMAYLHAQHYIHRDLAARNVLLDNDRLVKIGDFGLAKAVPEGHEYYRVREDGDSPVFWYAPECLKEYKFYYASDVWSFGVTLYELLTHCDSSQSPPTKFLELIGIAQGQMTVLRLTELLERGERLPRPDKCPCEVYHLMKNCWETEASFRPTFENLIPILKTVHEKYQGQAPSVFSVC
# JAK1 = target: T2, JAK1 (Homo sapiens, UniProt P23458); test: JAK1 inhibition (Table 4); settings: read-out: JAK1 Ki
# T2 construct: made in house; host or cells: SF9 insect cells (baculovirus)
# JAK3 = target: T3, JAK3 (Homo sapiens, UniProt P52333); test: JAK3 inhibition (Table 4); settings: read-out: JAK3 Ki
# T3 construct: made in house; host or cells: SF9 insect cells (baculovirus)
# JAK2 = target: T4, JAK2 (Homo sapiens, UniProt O60674); test: JAK2 inhibition (Table 4); settings: read-out: JAK2 Ki
# T4 construct: made in house; host or cells: SF9 insect cells (baculovirus)
# T4 sequence (O60674 812-1132): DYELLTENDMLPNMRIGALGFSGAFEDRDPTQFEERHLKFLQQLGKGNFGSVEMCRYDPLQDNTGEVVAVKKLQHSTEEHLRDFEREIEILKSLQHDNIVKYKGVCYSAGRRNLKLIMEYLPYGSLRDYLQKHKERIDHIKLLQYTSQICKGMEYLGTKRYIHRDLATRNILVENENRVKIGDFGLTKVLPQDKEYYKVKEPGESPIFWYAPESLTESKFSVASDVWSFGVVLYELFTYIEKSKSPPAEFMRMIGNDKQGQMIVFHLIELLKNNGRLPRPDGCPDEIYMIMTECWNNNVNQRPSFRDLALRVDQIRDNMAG
# T2 sequence (P23458 852-1154): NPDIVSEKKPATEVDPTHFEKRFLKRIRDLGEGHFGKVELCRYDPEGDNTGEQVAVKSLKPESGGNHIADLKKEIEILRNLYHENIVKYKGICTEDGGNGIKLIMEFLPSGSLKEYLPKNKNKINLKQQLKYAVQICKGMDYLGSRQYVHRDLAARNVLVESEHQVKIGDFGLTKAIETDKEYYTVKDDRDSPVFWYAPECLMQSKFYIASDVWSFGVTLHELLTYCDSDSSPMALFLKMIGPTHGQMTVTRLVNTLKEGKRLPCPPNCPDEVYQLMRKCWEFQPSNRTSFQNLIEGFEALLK
# T3 sequence (P52333 783-1124): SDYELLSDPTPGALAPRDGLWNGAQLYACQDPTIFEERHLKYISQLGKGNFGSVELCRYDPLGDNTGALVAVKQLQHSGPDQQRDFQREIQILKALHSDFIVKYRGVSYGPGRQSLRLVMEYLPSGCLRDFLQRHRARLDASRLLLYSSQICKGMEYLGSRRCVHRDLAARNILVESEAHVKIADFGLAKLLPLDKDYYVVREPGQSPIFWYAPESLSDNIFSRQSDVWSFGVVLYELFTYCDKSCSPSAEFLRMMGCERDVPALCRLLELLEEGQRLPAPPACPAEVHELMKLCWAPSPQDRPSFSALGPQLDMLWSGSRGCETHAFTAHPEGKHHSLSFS
SMILES,pKi (TYK2),pKi (JAK1),pKi (JAK3),pKi (JAK2)
"CS(=O)(=O)NCc1nc2cnc3[nH]ccc3c2n1C1CCNCC1(F)F (racemic) [Example 945, N-[1-(3,3-Difluoro-piperidin-4-yl)-1,6-dihydro-1,3,5,6-tetraaza-as-indacen-2-ylmethyl]-methanesulfonamide]",7.49,8.50,7.69,7.46
"CS(=O)(=O)NCc1nc2cnc3[nH]ccc3c2n1C1CCN(Cc2ccccc2)CC1(F)F (racemic) [Example 946, N-[1-(1-Benzyl-3,3-difluoro-piperidin-4-yl)-1,6-dihydro-1,3,5,6-tetraaza-as-indacen-2-ylmethyl]-methanesulfonamide]",6.81,8.84,7.92,8.02
"OCc1nc2cnc3[nH]ccc3c2n1C1CCN(Cc2ccccc2)CC1(F)F (racemic) [Example 947, [1-(1-Benzyl-3,3-difluoro-piperidin-4-yl)-1,6-dihydro-1,3,5,6-tetraaza-as-indacen-2-yl]-methanol]",8.25,9.38,8.67,8.89
"OCc1nc2cnc3[nH]ccc3c2n1C1CCNCC1(F)F (racemic) [Example 948, [1-(3,3-Difluoro-piperidin-4-yl)-1,6-dihydro-1,3,5,6-tetraaza-as-indacen-2-yl]-methanol]",8.14,8.91,8.23,7.87
"CN1CCCCCC1C(=O)N1CCC(n2cnc3cnc4[nH]ccc4c32)CC1 (racemic) [Example 953, (1-Methyl-azepan-2-yl)-[4-(6H-1,3,5,6-tetraaza-as-indacen-1-yl)-piperidin-1-yl]-methanone]",5.74,7.34,5.46,6.34
"Cn1cc2c(n1)CCC(n1cnc3cnc4[nH]ccc4c31)C2 (racemic) [Example 956, 1-(2-Methyl-4,5,6,7-tetrahydro-2H-indazol-5-yl)-1,6-dihydro-1,3,5,6-tetraaza-as-indacene]",6.55,7.26,6.39,7.05
"NC(=O)Cc1nc2cnc3[nH]ccc3c2n1C1CCCOC1 (racemic) [Example 960, 2-[1-(Tetrahydro-pyran-3-yl)-1,6-dihydro-1,3,5,6-tetraaza-as-indacen-2-yl]-acetamide]",6.65,7.52,6.63,6.68
"CNC(=O)Cc1nc2cnc3[nH]ccc3c2n1C1CCCOC1 (racemic) [Example 961, N-Methyl-2-[1-(tetrahydro-pyran-3-yl)-1,6-dihydro-1,3,5,6-tetraaza-as-indacen-2-yl]-acetamide]",6.36,7.34,6.50,6.48

# Second part, the compound after the results:
pKi (TYK2),pKi (JAK1),pKi (JAK3),pKi (JAK2),SMILES
6.40,7.45,6.75,6.68,"CCNC(=O)Cc1nc2cnc3[nH]ccc3c2n1C1CCCOC1 (racemic) [Example 962, N-Ethyl-2-[1-(tetrahydro-pyran-3-yl)-1,6-dihydro-1,3,5,6-tetraaza-as-indacen-2-yl]-acetamide]"
6.43,7.36,6.93,6.72,"CC(C)NC(=O)Cc1nc2cnc3[nH]ccc3c2n1C1CCCOC1 (racemic) [Example 963, N-Isopropyl-2-[1-(tetrahydro-pyran-3-yl)-1,6-dihydro-1,3,5,6-tetraaza-as-indacen-2-yl]-acetamide]"
6.51,7.50,6.97,6.80,"O=C(Cc1nc2cnc3[nH]ccc3c2n1C1CCCOC1)NC1CCC1 (racemic) [Example 965, N-Cyclobutyl-2-[1-(tetrahydro-pyran-3-yl)-1,6-dihydro-1,3,5,6-tetraaza-as-indacen-2-yl]-acetamide]"
6.32,7.42,6.71,6.59,"CC(C)CNC(=O)Cc1nc2cnc3[nH]ccc3c2n1C1CCCOC1 (racemic) [Example 966, N-Isobutyl-2-[1-(tetrahydro-pyran-3-yl)-1,6-dihydro-1,3,5,6-tetraaza-as-indacen-2-yl]-acetamide]"
